In general, GI50 refers to the concentration at which growth is held to half of that of the control.

Results on five compounds are retold here after ChEMBL document CHEMBL1201862, “PubChem BioAssay data set” (2004).

Structures are written as SMILES.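 Tested at 5 concentrations; 48 h exposure; 96-well plates; endpoints linearly interpolated, else capped at highest concentration. The concentration for 50% growth inhibition is given as GI50.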 Activity calls are given as the source filed them. Cut-off read from the data, not from the text of the source: active = GI50 up to about 1.1 µM and inactive = higher. Where only a bound is given, the exact number is not on record here.

Test systems include 786-0; A549; COLO 205; HCC 2998; HCT-116; HL-60; HOP-62; HOP-92; HT-29; KM12; MOLT-4; NCI-H522; RPMI-8226; SNB-75; UACC-62; UO-31.
Common to all, as to assay: DTP human tumour cell line panel, 48 h

Turning to `CC(=O)/C=C/c1cccc(N=S)c1`, the GI50 in the assay on 786-0 was 6 µM (inactive); in the assay with A549, 26.5 µM (inactive); with COLO 205 it was 20.1 µM (inactive); in the assay with HCC 2998, 12.7 µM (inactive); in the assay on HCT-116 it was 1.39 µM (inactive); in the assay on HL-60, 5.79 µM (inactive). Further, the GI50 in the assay with HOP-62 is > 63.5 µM (inactive); in the assay on HOP-92, > 100 µM (inactive); in the assay on HT-29, 6.28 µM (inactive); with KM12, 6.68 µM (inactive); in the assay on MOLT-4, > 40.1 µM (inactive); with NCI-H522, 18.6 µM (inactive). Also, the GI50 in the assay on RPMI-8226 is 3.63 µM (inactive); in the assay on SNB-75 it was 21.1 µM (inactive); with UACC-62, 21.6 µM (inactive); in the assay on UO-31, 39.4 µM (inactive).
For the compound `[N-]=[N+]=Nc1ncnc2c1sc(=S)n2-c1ccccc1`, the GI50 in the assay with 786-0 is > 100 µM (inactive); in the assay on A549, > 100 µM (inactive); in the assay on COLO 205, > 100 µM (inactive); in the assay with HCC 2998, > 100 µM (inactive); in the assay with HCT-116, > 100 µM (inactive); in the assay with HL-60 it was 84.9 µM (inactive). In addition, the GI50 in the assay with HOP-62 is 21.6 µM (inactive); in the assay with HOP-92 it was > 100 µM (inactive); in the assay on HT-29, > 100 µM (inactive); in the assay with KM12 it was > 100 µM (inactive); with MOLT-4, > 100 µM (inactive); with NCI-H522 it was > 100 µM (inactive). The GI50 in the assay on RPMI-8226, in the assay with SNB-75, in the assay on UACC-62 and with UO-31 was > 100 µM (inactive) each time.
For `Cn1c(=O)c(C(=O)NC(=O)NCCCCCOC(=O)CCCCCCCCCCC(=O)OCCCCCNC(=O)NC(=O)c2cn(Cc3ccccc3)c(=O)n(C)c2=O)cn(Cc2ccccc2)c1=O`, the GI50 in the assay on 786-0, in the assay on A549, in the assay with COLO 205, in the assay with HCC 2998, in the assay on HCT-116 and with HL-60 was > 100 µM (inactive) each time. The GI50 is > 100 µM (inactive) in the assay on HOP-62; 71.4 µM (inactive) with HOP-92; > 100 µM (inactive) in the assay with HT-29; > 100 µM (inactive) in the assay with KM12; > 100 µM (inactive) in the assay on NCI-H522; > 100 µM (inactive) with RPMI-8226. The GI50 with SNB-75, in the assay on UACC-62 and in the assay on UO-31 was > 100 µM (inactive) throughout.
As for `C=C1C(=O)OC2/C=C(/C)C3CC(O)C(C)(CC(OC(=O)/C(C)=C/C)C12)O3` (configuration not stated), the GI50 in the assay on 786-0 is 3.29 µM (inactive); with A549, 6.61 µM (inactive); in the assay with COLO 205 it was 1.52 µM (inactive); with HCC 2998 it was 13.2 µM (inactive); in the assay with HCT-116, 1.53 µM (inactive); in the assay with HL-60, 0.759 µM (active). For the same compound, the GI50 is 25.1 µM (inactive) in the assay on HOP-62; 2.98 µM (inactive) in the assay on HOP-92; 3.76 µM (inactive) in the assay on HT-29; 3.33 µM (inactive) in the assay on KM12; 1.91 µM (inactive) in the assay on MOLT-4; 1.6 µM (inactive) with NCI-H522. For the same compound, the GI50 with RPMI-8226 is 1.83 µM (inactive); in the assay with SNB-75, 9.04 µM (inactive); with UACC-62, 2.03 µM (inactive); in the assay on UO-31, 5.86 µM (inactive).
With `O=C(c1ccccc1)N1C2C3CC(OCc4ccccc4)(OCc4ccccc4)C(O3)C21` (configuration not stated), the GI50 in the assay with 786-0, in the assay with A549, in the assay on COLO 205, in the assay on HCC 2998, in the assay with HCT-116 and in the assay with HL-60 was > 100 µM (inactive) throughout. The GI50 in the assay with HOP-62 is > 100 µM (inactive); in the assay with HOP-92, > 100 µM (inactive); with MOLT-4, > 100 µM (inactive); in the assay on NCI-H522, > 100 µM (inactive); in the assay with RPMI-8226, 54.2 µM (inactive); in the assay on SNB-75 it was > 100 µM (inactive). For the same compound, the GI50 in the assay on UACC-62 and with UO-31 was > 100 µM (inactive) each time.
